A word on the GI50: it is the concentration that inhibits growth by half. Broadly, the TGI is the concentration giving total growth inhibition. Higher therefore signals lower sensitivity of the cells.

Among the test systems are COLO 205 colon; HOP-62 NSCLC; SF-268 CNS; HOP-92 NSCLC; SN12C renal; SR leukemia; NCI-H226 lung; T-47D breast; RPMI-8226 leukemia; 786-0 renal.
Common to all, as to assay: DTP human tumour cell line panel, 48 h

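Following 48 hours of exposure in 96-well plates, responses at five concentrations were used to interpolate endpoints linearly. Abbreviation: GI50, concentration required for 50% inhibition of growth. TGI marks complete inhibition of growth.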

`CC1(C)N=C(N)N=C(N)N1c1cccc(OCCOc2cccc([N+](=O)[O-])c2)c1`: the GI50 in the assay with COLO 205 colon is 2.13 µM; with HOP-62 NSCLC, 31.2 µM; in the assay on SF-268 CNS it was 0.535 µM; in the assay on HOP-92 NSCLC, 3.51 µM; with SN12C renal it was 4.04 µM; in the assay with SR leukemia, 0.543 µM. Moreover, the GI50 with NCI-H226 lung was 48.6 µM; with T-47D breast, 12.6 µM; in the assay with RPMI-8226 leukemia, 4.01 µM; in the assay with 786-0 renal, 37 µM. Further, the TGI in the assay on COLO 205 colon was over 100 µM; with HOP-62 NSCLC, over 100 µM; with SF-268 CNS, over 100 µM; with HOP-92 NSCLC it was 73.5 µM; with SN12C renal, over 100 µM; in the assay with SR leukemia, over 100 µM. The total growth inhibition concentration (TGI) in the assay on NCI-H226 lung, in the assay on T-47D breast, in the assay on RPMI-8226 leukemia and in the assay with 786-0 renal was over 100 µM throughout.
With `C=C(C)[C@@H]1CC[C@]2(C)[C@H](CC[C@@H]3[C@@H]([C@@](C)(O)CCC=C(C)C)CC[C@]32C)[C@@]1(C)CCC(=O)O`, the GI50 was 17.7 µM in the assay with COLO 205 colon; 18.6 µM with HOP-62 NSCLC; 16.1 µM in the assay with SF-268 CNS; 12.7 µM with HOP-92 NSCLC; 17.2 µM in the assay with SN12C renal; 16.5 µM with SR leukemia. In addition, the GI50 in the assay with NCI-H226 lung is 18.1 µM; with T-47D breast it was 21.5 µM; in the assay with RPMI-8226 leukemia it was 12.2 µM; in the assay with 786-0 renal it was 18.7 µM. Besides, the TGI stood at 35.6 µM in the assay with COLO 205 colon; 45.3 µM in the assay on HOP-62 NSCLC; 32.8 µM in the assay with SF-268 CNS; 27.2 µM in the assay with HOP-92 NSCLC; 40.5 µM with SN12C renal; 44.7 µM in the assay on SR leukemia. Also, the TGI in the assay with NCI-H226 lung is 37.3 µM; in the assay on T-47D breast, over 100 µM; in the assay with RPMI-8226 leukemia, 38.2 µM; in the assay with 786-0 renal it was 36.7 µM.

Values taken from PubChem BioAssay (NCI).
